Experimental findings from paper PMC12040169 (PLOS Biology, 2025) are described below.

The nature of one series: in vitro. The following applies: human, hela cells, % viability.
Consider `COc1ccc(NC(=O)c2cnc(-c3cccc(C(F)(F)F)c3)c(-c3ccncc3)c2)cc1` [CBK037593], for which the viability at 28.5 h, 10 µM amounted to 87.3%.

Turning to `COc1ccc(-c2nnc(SCC(=O)Nc3cc(C)on3)n2C2CCCCC2)cc1` [CBK297510], the viability at 28.5 h, 10 µM was 84.1%.

As to `OCc1ccc(-n2cc(-c3ccc(F)cc3F)nn2)cc1` [CBK112982], the viability at 28.5 h, 10 µM worked out at 89.2%.

`CCn1cc(C(=O)O)c(=O)c2cnc(N3CCN(C(=S)Nc4ccc5c(c4)OCO5)CC3)nc21` [CBK267930]: the viability at 28.5 h, 10 µM is 90.6%.

Consider `CN(C)c1ccc(-c2nc(-c3ccco3)cnc2N)cc1` [CBK063934], for which the viability at 28.5 h, 10 µM is 104%.

In the case of `COc1cc(NC(=S)N2CCN(c3cc(Cl)ccc3C)CC2)cc(OC)c1` [CBK266252], the viability at 28.5 h, 10 µM came to 100%.

For `COc1nc2ccccc2nc1CCC(=O)NCc1ccco1` [CBK269866], the viability at 28.5 h, 10 µM is 93.4%.

As to `O=C(O)c1cccc(S(=O)(=O)Nc2nc3c(Cl)cccc3s2)c1` [CBK161135], the viability at 28.5 h, 10 µM is 96.5%.

On to `Cc1ccc(C(=O)NC2CCCCC2)c(N2CCOCC2)n1` [CBK076388], for which the viability at 28.5 h, 10 µM turned out to be 96.5%.

On to `CN1CCC(N2CC[C@@H]3[C@H]2C(=O)NC[C@H](CCC(=O)NCc2ccccc2)N3C)CC1` [CBK289026], for which the viability at 28.5 h, 10 µM was found to be 114%.

Regarding `O=C1c2ccccc2C(=O)N1Cc1nc2ccccc2c(=O)n1CCN1CCOCC1` [CBK268472], the viability at 28.5 h, 10 µM is 105%.

In the case of `CCN(CC)C(=O)CCn1c(-c2cccnc2C)cc2cccnc21` [CBK282147], the viability at 28.5 h, 10 µM worked out at 91.5%.

On to `O=C(NC1(c2cccc(F)c2)CCCC1)c1cnccn1` [CBK283619], for which the viability at 28.5 h, 10 µM was 93%.

As to `O=C(NC(Cc1c[nH]c2ccccc12)C(=O)NC1CCCCC1)OCc1ccccc1` (centres unmarked) [CBK085144], the viability at 28.5 h, 10 µM was found to be 89%.

On to `CC(C)NC(=O)N[C@H]1CCN2C(=O)c3cc(-c4ccccc4)ccc3NC(=O)[C@H]12` [CBK289351], for which the viability at 28.5 h, 10 µM is 84.1%.

`O=c1[nH]c(=O)c2cc(S(=O)(=O)Nc3ccccc3-c3ccccc3)ccc2[nH]1` [CBK286374]: the viability at 28.5 h, 10 µM was found to be 102%.

For `CCN(CC)C(=O)c1cccc(OC)c1` [CBK012105], the viability at 28.5 h, 10 µM amounted to 101%.

As for `CN(C)CCN1CCN(c2nc(-c3ccc4[nH]ccc4c3)cn3ccnc23)CC1` [CBK036587], the viability at 28.5 h, 10 µM came to 102%.

As to `COc1ccc(CCNC(=O)CSc2nc(N)c3c4c(sc3n2)CCCC4)cc1` [CBK095784], the viability at 28.5 h, 10 µM was found to be 94.2%.

For the compound `O=C(Nc1ncc(Cl)s1)C1CC(=O)N(C2CC2)C1` (centres unmarked) [CBK175551], the viability at 28.5 h, 10 µM is 102%.

Consider `Cn1nccc1C(=O)N1CCN(c2ncccn2)CC1` [CBK288240], for which the viability at 28.5 h, 10 µM amounted to 90.7%.

Regarding `CN1CCN(c2ccc(NC(=O)c3cc([N+](=O)[O-])ccc3N3CCOCC3)cc2)CC1` [CBK269425], the viability at 28.5 h, 10 µM was 95.6%.

Regarding `Cc1ccc2c(Cl)c(-c3nnc(-c4ccc(Cl)cc4)o3)sc2c1` [CBK263682], the viability at 28.5 h, 10 µM turned out to be 106%.

Turning to `Cc1ccc(Nc2cc(-c3cccc4oc5ccccc5c34)ncn2)cc1NS(C)(=O)=O` [CBK091150], the viability at 28.5 h, 10 µM turned out to be 93.6%.

On to `Cc1c(C(=O)Nc2ccc(S(=O)(=O)N3CCCCCC3)cc2)oc2ccc(Cl)cc12` [CBK267664], for which the viability at 28.5 h, 10 µM worked out at 89.2%.

As to `CS(=O)(=O)N1C2CCC(C2)[C@H]1COc1ccc(F)cc1` (some centres unmarked) [CBK285279], the viability at 28.5 h, 10 µM worked out at 108%.

For the compound `COc1cc(CN2CCc3c([nH]c4ccccc34)C2)c([N+](=O)[O-])cc1OC` [CBK261588], the viability at 28.5 h, 10 µM is 90.6%.

With `O=C(Nc1cccc(-c2noc(CCc3ccccc3)n2)c1)c1cccs1` [CBK270225], the viability at 28.5 h, 10 µM was 87.4%.

On to `N#CCCCN1CCC(Oc2nccnc2OCC2COc3ccccc3O2)CC1` (centres unmarked) [CBK082994T], for which the viability at 28.5 h, 10 µM worked out at 86.8%.

Consider `CSc1nc(C)c(CCC(=O)N(C)Cc2c(C)nn(-c3ccccc3)c2C)c(=O)[nH]1` [CBK297925], for which the viability at 28.5 h, 10 µM worked out at 84.5%.

`N#Cc1ccc(C(=O)Nc2nnc(-c3ccccn3)o2)cc1` [CBK287428]: the viability at 28.5 h, 10 µM was 100%.

`Cc1ccccc1CN1CCN(CC2CC3C=CC2C3)CC1` (centres unmarked) [CBK263402]: the viability at 28.5 h, 10 µM came out at 88%.

With `CN1CCN(c2ccc(-c3cnc4[nH]c(=O)n(C5CC5)c4n3)cc2)CC1` [CBK064899], the viability at 28.5 h, 10 µM was found to be 89.7%.

Turning to `Cn1ncc(N2CCC(CNC(=O)COc3ccccc3)C2)cc1=O` (centres unmarked) [CBK306810], the viability at 28.5 h, 10 µM stood at 92.3%.

Consider `O=C1CCC(=O)N1CCN1C(=O)C2(CC(=O)N(Cc3ccccc3)C2=O)c2ccccc21` (centres unmarked) [CBK075705], for which the viability at 28.5 h, 10 µM was 101%.

Take `Cc1ccc(S(=O)(=O)N(CCC#N)CCN2CCCC2)cc1` [CBK028055]: the viability at 28.5 h, 10 µM was 119%.

With `O=c1c(I)coc2ccc(Cl)cc12` [CBK005364], the viability at 28.5 h, 10 µM is 93.9%.

As for `CC[C@H]1C[N@@]2CC[C@H]1C[C@@H]2CNS(=O)(=O)c1cccc2cccnc12` [CBK288747], the viability at 28.5 h, 10 µM was 90.6%.

Consider `COCc1nc(C(=O)Nc2ccc(NC(C)=O)cc2C(F)(F)F)cs1` [CBK306298], for which the viability at 28.5 h, 10 µM amounted to 107%.

Turning to `CC(Oc1ccc2c(c1)OCO2)C(=O)N1CCc2sccc2C1c1ccccc1` (centres unmarked) [CBK285549], the viability at 28.5 h, 10 µM amounted to 91.9%.

For `O=C(O)c1ccc(CSc2nnc(-c3ccncc3)o2)cc1` [CBK266352], the viability at 28.5 h, 10 µM amounted to 98.5%.

On to `O=C(Nc1ccc2c(c1)OCCO2)N1CCN(c2ccccc2)CC1` [CBK155187], for which the viability at 28.5 h, 10 µM amounted to 94.7%.

Consider `COc1cc(CNS(=O)(=O)c2cc3c(NCCN(C)C)nccc3s2)cc(OC)c1OC` [CBK038246C], for which the viability at 28.5 h, 10 µM stood at 91.8%.

For `COc1ccc([C@@]23CC[C@@H](NC(=O)Nc4cc(C)c(C)cc4[N+](=O)[O-])C[C@@H]2N(C)CC3)cc1OC` [CBK036478T], the viability at 28.5 h, 10 µM turned out to be 67.8%.

As for `CC(C)[C@@H](Cn1nc(C2CC2)ccc1=O)NC(=O)c1ccco1` [CBK282321], the viability at 28.5 h, 10 µM came out at 88.3%.

Turning to `COCCCN1C(=O)C(O)=C(C(=O)c2ccc(Cl)cc2)C1c1cccc(O)c1` (centres unmarked) [CBK264892], the viability at 28.5 h, 10 µM turned out to be 105%.

Consider `CC(C)C(=O)N1CC2(CCN(CCCCC3NC(=O)NC3=O)CC2)c2ccccc21` (centres unmarked) [CBK131471], for which the viability at 28.5 h, 10 µM amounted to 111%.

Turning to `Cc1nc2c(c(=O)c3ccccc3n2C)c(=O)n1Cc1ccco1` [CBK287776], the viability at 28.5 h, 10 µM stood at 100%.

On to `CC1CCCC(C)N1CC(O)COCc1ccc2c(c1)OCO2` (centres unmarked) [CBK263134C], for which the viability at 28.5 h, 10 µM worked out at 86.3%.

With `Cc1nc(-c2ccccc2F)sc1C(=O)Nc1ccccn1` [CBK287979], the viability at 28.5 h, 10 µM was 98.8%.

Take `c1ccc(-c2ccccc2CN2CCC(Oc3nccnc3OCCN3CCOCC3)CC2)cc1` [CBK082924T]: the viability at 28.5 h, 10 µM is 102%.

`CNC(=O)c1cccc(NC(=O)c2cc(-c3cccnc3)cnc2NCc2ccc3c(c2)OCO3)c1` [CBK076291]: the viability at 28.5 h, 10 µM amounted to 89.4%.

Consider `Cc1ccc(Cl)c(OC(C)C(=O)N2CCC(CC(N)=O)CC2)c1` (centres unmarked) [CBK305762], for which the viability at 28.5 h, 10 µM stood at 93%.

Regarding `CN1CCN(c2nccnc2-c2cccnc2)CC1` [CBK036612], the viability at 28.5 h, 10 µM was found to be 89.8%.

Consider `CN(CCN1CCCC1)c1nccc(N2CCN[C@H]3CS(=O)(=O)C[C@H]32)n1` [CBK306692], for which the viability at 28.5 h, 10 µM came to 85.6%.

`COc1ccc(C(NC(=O)[C@H]2CCCN2C(=O)Cc2cccs2)c2ccccc2C)cn1` (some centres unmarked) [CBK075053]: the viability at 28.5 h, 10 µM amounted to 87%.

As to `CCN(CC)Cn1nc(Nc2ccccc2)n(-c2ccccc2)c1=S` [CBK261672], the viability at 28.5 h, 10 µM worked out at 87.6%.

`COC(=O)c1ccc(C)c(N(CCO)CCO)c1` [CBK262418]: the viability at 28.5 h, 10 µM is 102%.

As to `Oc1cccnc1N1CCNCC1` [CBK045850], the viability at 28.5 h, 10 µM is 88.8%.

With `Cc1ccc(O)c(NC(=O)Cn2nc([N+](=O)[O-])c(Br)c2C)c1` [CBK261718], the viability at 28.5 h, 10 µM was 92.2%.

On to `COc1cccc(OCCOc2nsnc2N2CCNCC2)c1` [CBK200007], for which the viability at 28.5 h, 10 µM came out at 110%.

As to `CC1CCCCN1S(=O)(=O)c1ccc(-n2ncc(Cl)c(Cl)c2=O)cc1` (centres unmarked) [CBK305035], the viability at 28.5 h, 10 µM came to 90.6%.

Regarding `Cc1nc(CC(=O)N2CCC[C@@H]3NC(=O)c4ccccc4OCCCCC[C@@H]32)cs1` [CBK292113], the viability at 28.5 h, 10 µM came out at 102%.

As for `COc1ccc([C@H]2CN(Cc3ccccc3)C[C@@H]2NC(C)=O)cc1` [CBK282930], the viability at 28.5 h, 10 µM is 92.1%.

Regarding `CCn1cc(CN2CCCC(c3cc4cccnc4[nH]3)C2)c(C)n1` (centres unmarked) [CBK284701], the viability at 28.5 h, 10 µM stood at 89.2%.

With `COc1ccc(C2NCCc3c2[nH]c2ccccc32)cc1CN1CCN(c2ccc(F)cc2)CC1` (centres unmarked) [CBK264178C], the viability at 28.5 h, 10 µM is 81.7%.

Consider `COc1ccccc1/C=C/c1nn2c(C(C)C)nnc2s1` [CBK269501], for which the viability at 28.5 h, 10 µM was 79.3%.

For the compound `O=C(NC(=S)Nc1cccc(-c2nc3ncccc3o2)c1)c1ccc(-c2cccc([N+](=O)[O-])c2)o1` [CBK267870], the viability at 28.5 h, 10 µM amounted to 83.4%.

For `O=C(Nc1ccccc1C(F)(F)F)N(Cc1ccccc1C(F)(F)F)CC1CCNCC1` [CBK049744], the viability at 28.5 h, 10 µM is 112%.

Regarding `O=C(NCC(O)c1ccc([N+](=O)[O-])cc1)c1cccc(S(=O)(=O)N2CCCC2)c1` (centres unmarked) [CBK268847], the viability at 28.5 h, 10 µM was determined as 119%.

Regarding `NC(=O)CN1C(=O)CO[C@H]2CN(Cc3ccccc3F)C[C@H]21` [CBK289693], the viability at 28.5 h, 10 µM was found to be 114%.

As for `Cc1cccc(C)c1NC(=S)N1CCC2(CC1)OCCO2` [CBK016408], the viability at 28.5 h, 10 µM came out at 117%.

On to `O=[N+]([O-])c1ccc(N2CCN(S(=O)(=O)c3ccc4ccccc4c3)CC2)c(C(F)(F)F)c1` [CBK264827], for which the viability at 28.5 h, 10 µM was found to be 103%.

As to `COc1cc(C(=O)Nc2nnc(C3=COCCO3)o2)cc(OC)c1OC` [CBK287410], the viability at 28.5 h, 10 µM stood at 97.6%.

Take `O=C(O)C1C2C=CC(O2)C1C(=O)Nc1ccc2c(c1)OCO2` (centres unmarked) [CBK265475]: the viability at 28.5 h, 10 µM is 88.6%.

With `N#CCCCN1CCC(Oc2nccnc2OCc2c(F)cccc2Cl)CC1` [CBK153630], the viability at 28.5 h, 10 µM came out at 102%.

Staying with this series, now noted: human, hela cells, % viability, bulk resorufin, single well.
For `Cc1cccc(N2C(=O)NC(=O)C(CCc3ccncc3)(CCc3ccncc3)C2=O)c1C` [CBK268705], the viability at 28.5 h, 10 µM worked out at 93.9%.
